One compound from patent publication US20260183295A1, “METHODS AND COMPOSITIONS FOR TREATING CANCER” (Onconova Therapeutics, Inc., priority 2022, published 2026) can be followed below.

One test relates to BRAF. The test can be described thus: Phosphoproteomic analysis, MDA-MB-231. The test is classed as cell-based. The note with it: 5 μM, 2 hours, T-test p<0,05. The protocol:
Following treatment, a sample of each of the three treatments was analyzed by Western Blot for expression of phosphoprotein targets.
In addition to western blot analysis, the cell lysate samples underwent phosphoproteomic analysis.

A further test relates to Caspase 3/7. The test can be described thus: Caspase 3/7 Glo assay with or without bafilomycin A1, MDA-MB-231 cells, 2 days. The test is classed as cell-based. To be noted: 5 μM. From the text: FIGS. 34 and 35 show Caspase 3/7 activity as measured by the Caspase 3/7 Glo assay. […] The effect was enhanced by co-treatment with bafilomycin A1 cotreatment.
In test [1] the target is T1, CDK4/cyclin D1 (Homo sapiens, UniProt P11802). The test can be described thus: CDK4/cyclin D1 In Vitro IC50. The test is classed as biochemical. The protocol:
Substrate was prepared in freshly prepared base reaction buffer. Any required cofactors were delivered to the substrate solution above. Indicated kinase was delivered into the substrate solution and the solution was gently mixed. Compounds were delivered in 100% DMSO into the kinase reaction mixture by Acoustic technology (Echo550; nanoliter range) and incubated for 20 minutes at room temperature. 33P-ATP was delivered into the reaction mixture to initiate the reaction. The kinase reaction was incubated for 2 hours at room temperature. Kinase activity was detected by P81 filter-binding method.
Target sequence in this assay (P11802 whole entry): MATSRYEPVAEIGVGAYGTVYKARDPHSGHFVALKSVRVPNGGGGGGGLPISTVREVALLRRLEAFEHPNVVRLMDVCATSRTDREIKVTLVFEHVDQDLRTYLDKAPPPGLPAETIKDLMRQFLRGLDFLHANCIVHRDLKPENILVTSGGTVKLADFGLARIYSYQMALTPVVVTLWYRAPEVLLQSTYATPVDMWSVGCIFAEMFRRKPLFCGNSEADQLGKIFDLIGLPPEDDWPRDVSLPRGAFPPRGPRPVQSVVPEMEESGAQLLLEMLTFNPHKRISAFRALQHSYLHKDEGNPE
Target sequence in this assay (P24385 whole entry partner): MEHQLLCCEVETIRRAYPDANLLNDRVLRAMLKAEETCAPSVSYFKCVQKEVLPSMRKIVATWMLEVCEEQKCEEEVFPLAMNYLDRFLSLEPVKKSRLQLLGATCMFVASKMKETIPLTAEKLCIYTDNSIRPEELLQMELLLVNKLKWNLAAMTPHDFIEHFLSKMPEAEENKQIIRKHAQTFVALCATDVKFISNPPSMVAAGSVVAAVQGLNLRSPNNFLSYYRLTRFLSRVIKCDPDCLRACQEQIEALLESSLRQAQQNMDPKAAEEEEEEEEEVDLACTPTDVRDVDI

In test [2] the target is T1, CDK4/cyclin D1. As to the kind of experiment: CDK4/cyclin D1 CETSA. The test is classed as cell-based. On the set-up: endogenous in cells; host or cells: MDA-MB-231 (lysates and intact cells). The method, then:
Following treatment, cell lysates were thermally treated in a thermal gradient profile across a temperature range. Following the thermal shift, cell lysates were spun by centrifuge to pellet aggregate protein and the supernatant withdrawn. The supernatant was then denatured in buffer and heated to denature, reduce, and alkylate the supernatant proteins. Following heating and cooling to room temperature, cold acetone was added to the supernatant samples and proteins precipitated.
TNBC MDA-MB-231 cells were grown at 37° C. in 5% CO2 and suspended in warm media and split into 4 equal volumes. […] Cells were incubated and then pelleted. Following pelleting, the cells were washed, resuspended, and heated in a thermal gradient. Following heating, the samples were flash frozen and lysed in lysis buffer, agitated by vortex, and sonicated prior to centrifugation. The supernatant was collected and denaturation buffer added. Cold acetone was then added to the cell samples, and protein collected by centrifugation. […]
The intact cell protein samples and lysate protein samples were then digested and labeled for mass spectrometry analysis according to the manufacturer's recommended protocols. Digested and labeled protein samples were analyzed by mass spectrometry proteomic analysis and the resulting protein targets were analyzed and plotted.
Target sequence in this assay (P11802 whole entry): as the sequence (P11802 whole entry) above

In the next test the target is T2, NUAK1 (Homo sapiens, UniProt O60285).
T2 sequence (O60285 1-661): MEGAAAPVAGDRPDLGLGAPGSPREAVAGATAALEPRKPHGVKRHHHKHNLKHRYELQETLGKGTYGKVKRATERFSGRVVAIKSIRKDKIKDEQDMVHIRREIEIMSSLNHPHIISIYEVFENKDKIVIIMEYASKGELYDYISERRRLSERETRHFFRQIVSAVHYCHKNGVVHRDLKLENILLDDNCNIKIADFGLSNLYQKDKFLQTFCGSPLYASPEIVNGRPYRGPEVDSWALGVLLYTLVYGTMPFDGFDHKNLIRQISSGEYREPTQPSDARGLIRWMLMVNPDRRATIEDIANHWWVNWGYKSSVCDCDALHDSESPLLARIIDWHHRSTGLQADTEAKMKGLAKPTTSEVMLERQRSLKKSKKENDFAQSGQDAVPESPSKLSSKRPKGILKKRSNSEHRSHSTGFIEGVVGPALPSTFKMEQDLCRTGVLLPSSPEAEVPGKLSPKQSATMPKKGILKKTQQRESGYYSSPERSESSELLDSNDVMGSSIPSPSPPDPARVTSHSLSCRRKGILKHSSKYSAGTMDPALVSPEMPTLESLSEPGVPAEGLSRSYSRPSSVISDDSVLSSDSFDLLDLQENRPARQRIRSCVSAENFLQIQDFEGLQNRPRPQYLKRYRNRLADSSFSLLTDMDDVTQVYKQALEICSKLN
The test can be described thus: NUAK1 In Vitro Kd, kinase binding assay (qPCR). The note with it: second In Vitro column of Table 8. The method, then:
Kinase-tagged T7 phage strains were prepared in an E. coli host derived from the BL21 strain. E. coli were grown to log-phase and infected with T7 phage and incubated with shaking at 32° C. until lysis. The lysates were spun by centrifuge and filtered to remove cell debris. The remaining kinases were produced in HEK-293 cells and subsequently tagged with DNA for qPCR detection. […] The liganded beads were blocked with excess biotin and washed with blocking buffer (SeaBlock (Pierce), 1% BSA, 0.05% Tween 20, 1 mM DTT) to remove unbound ligand and to reduce non-specific binding. […] Test compounds were prepared as 111× stocks in 100% DMSO. Kds were determined using an 11-point 3-fold compound dilution series with three DMSO control points.
The compounds were then diluted directly into the assays such that the final concentration of DMSO was 0.9%. All reactions performed in polypropylene 384-well plate. Each was a final volume of 0.02 ml. […] The kinase concentration in the eluates was measured by qPCR. Binding constants (Kds) were calculated with a standard dose-response curve using the Hill equation: Response=Background+Signal−Background 1+(KdHill Slope/DoseHill Slope) The Hill Slope was set to −1. Curves were fitted using a non-linear least square fit with the Levenberg-Marquardt algorithm.
In general terms: In qPCR the cycle at which signal appears reflects the starting amount.

Another test concerns CCL5. The test can be described thus: qPCR of T-cell recruiting chemokine mRNA, PyMT cells. The test is classed as cell-based, mouse.
The test system of a further test is Hs578T spheroids. The test can be described thus: Spheroid imaging (Hoechst, F-actin). The note with it: 5 μM, compared to DMSO, Comparator 1 and Comparator 2 (FIG. 18). The test is classed as cell-based.
The subject of another test is BUB1 in MDA-MB-468. The test can be described thus: BUB1 levels after 72 hours treatment. The test is classed as cell-based. To be noted: MDA-MB-468 (TNBC). The protocol:
(§1) The effects on the different treatment conditions on BUB 1 levels and PARP cleavage were also assessed. For both MNA-MB-231 cells, Compound 1 alone or with HCQ or SBI decreased BUB1 levels and cleaved PARP with […] decreases in cell viability observed for all treatments except Compound 1+SBI in MMA-MB-231 cells. The effects of Compound 1 with or without autophagy inhibitors was less pronounced in HCC-1937 cells.

For the next test, the system named is BUB1 in MDA-MB-231. As to the kind of experiment: BUB1 levels after 72 hours treatment. The test is classed as cell-based. The note with it: MDA-MB-231 (TNBC). The protocol:
as §1

A further test concerns B2M. The test can be described thus: qPCR of mRNA expression, PyMT cells. To be noted: 24 and 48 hours. The test is classed as cell-based, mouse.
A further test concerns MDA-MB-231 cells. The test can be described thus: Lysotracker Green staining, phase contrast microscopy. The test is classed as cell-based. To be noted: 5 μM, 2 hours. The method, then:
MDA-MB-231 cells were treated with Compound 1 (5 μM) for 2 hours and stained with Lysotracker Green and imaged using phase contrast microscopy to examine the effect of Compound 1 treatment on vacuolization.

Take `CN1CCN(c2ccc(Nc3ncc4cc(C#N)c(=O)n(C5CCCC5)c4n3)cc2)CC1` [Compound 1, 8-cyclopentyl-2-((4-(4-methylpiperazin-1-yl)phenyl)amino)-7-oxo-7,8-dihydropyrido[2,3-d]pyrimidine-6-carbonitrile]: in the test with BRAF, the “Significance (phosphopeptide target)” value is given as “significant”. In the test on Caspase 3/7, the “Caspase 3/7 activity, compound alone” value is on record as “increased Caspase 3/7 activity” and the “effect of bafilomycin A1 cotreatment on Caspase 3/7 activity” value is “enhanced”. In addition, the IC50 – broadly, the point on the concentration scale where inhibition reaches its midpoint – against CDK4/cyclin D1 [1] is 2 nM. Besides, on CDK4/cyclin D1 [2], the CETSA entry is given as “POS”. In addition, the dissociation constant (Kd) – broadly, a measure of binding affinity in units of concentration – on NUAK1 was 19 nM. The “time of peak CCL5 mRNA levels” value in the test on CCL5 was about 48 h. The “CCL5 mRNA levels” value in the test on CCL5 (24, 48 and 72 hours) is “large increase”. The spheroid size entry in the test with Hs578T spheroids is recorded as “small decrease in spheroid size”. In addition, the BUB1 entry in the test on BUB1 in MDA-MB-468 is given as “↓”. For the same compound, the BUB1 result with BUB1 in MDA-MB-231 was “↓”. Besides, the “B2M mRNA levels” value with B2M is listed as “to a greater extent than Comparator 1 did”. Further, the “vacuolization, Lysotracker Green staining” value in the test on MDA-MB-231 cells is listed as “extensive cytoplasmic vacuolization that colocalized with Lysotracker green staining”.
